Experimental data: publication PMC3821638, “Molecular Cloning and Characterization of the Calcineurin Subunit A from Plutella xylostella” (International Journal of Molecular Sciences, 2013)
Where two headings read alike, the source gives them in different places.

Biological target: T1, Calcineurin subunit A (PxCNA), catalytic domain PxCNα (Plutella xylostella, UniProt V5U5Q7)
T1 construct: catalytic (phosphatase) domain CNA1–341 (PxCNα), His-tagged, expressed in E. coli
Assay: pNPP phosphatase assay with purified recombinant rPxCNα, dose-response and enzyme kinetics
Type: biochemical

T1 sequence (V5U5Q7 1-341): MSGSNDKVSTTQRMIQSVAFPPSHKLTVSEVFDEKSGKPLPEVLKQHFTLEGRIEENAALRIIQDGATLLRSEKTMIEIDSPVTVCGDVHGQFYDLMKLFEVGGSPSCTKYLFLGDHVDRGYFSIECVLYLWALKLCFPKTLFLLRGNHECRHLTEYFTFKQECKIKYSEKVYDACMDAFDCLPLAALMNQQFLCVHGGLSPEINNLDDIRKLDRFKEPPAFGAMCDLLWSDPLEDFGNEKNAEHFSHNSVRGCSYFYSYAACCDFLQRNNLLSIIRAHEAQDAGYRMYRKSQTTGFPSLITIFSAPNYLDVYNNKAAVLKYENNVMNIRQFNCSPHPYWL

| Compound | IC50 | IC50 (read-out: IC50) |
| --- | --- | --- |
| C[C@@]12C(=O)OC(=O)[C@]1(C)[C@H]1CC[C@@H]2O1 [CTD, cantharidin] | 77.6 µM |  |
| C=C1[C@@H](O)[C@@H]2O[C@]3(CC[C@H](/C=C/[C@@H](C)[C@@H]4CC(C)=C[C@@]5(O[C@H](C[C@@](C)(O)C(=O)O)CC[C@H]5O)O4)O3)CC[C@H]2O[C@@H]1[C@@H](O)C[C@H](C)[C@H]1O[C@@]2(CCCCO2)CC[C@H]1C [OA, okadaic acid] |  | 8.95 µM |
